Test results from ChEMBL document CHEMBL2074052, “Human organic anion transporters and human organic cation transporters mediate renal antiviral transport” (J Pharmacol Exp Ther, 2002).

Experiments:
Type in all cases: functional, cell-based
[1] = biological target: T1, OAT3 (Organic anion transporter 3) (Homo sapiens, UniProt Q8TCC7); experiment: TP_TRANSPORTER: inhibition of E1S uptake (E1S: 0.05 uM, GCV: 1000 uM) in OAT3-expressing S2 cells; parameters: scale not given: the % may be the effect or the level left; conditions: mouse, probe E1S, read-out: Activity
T1 sequence (Q8TCC7 whole entry): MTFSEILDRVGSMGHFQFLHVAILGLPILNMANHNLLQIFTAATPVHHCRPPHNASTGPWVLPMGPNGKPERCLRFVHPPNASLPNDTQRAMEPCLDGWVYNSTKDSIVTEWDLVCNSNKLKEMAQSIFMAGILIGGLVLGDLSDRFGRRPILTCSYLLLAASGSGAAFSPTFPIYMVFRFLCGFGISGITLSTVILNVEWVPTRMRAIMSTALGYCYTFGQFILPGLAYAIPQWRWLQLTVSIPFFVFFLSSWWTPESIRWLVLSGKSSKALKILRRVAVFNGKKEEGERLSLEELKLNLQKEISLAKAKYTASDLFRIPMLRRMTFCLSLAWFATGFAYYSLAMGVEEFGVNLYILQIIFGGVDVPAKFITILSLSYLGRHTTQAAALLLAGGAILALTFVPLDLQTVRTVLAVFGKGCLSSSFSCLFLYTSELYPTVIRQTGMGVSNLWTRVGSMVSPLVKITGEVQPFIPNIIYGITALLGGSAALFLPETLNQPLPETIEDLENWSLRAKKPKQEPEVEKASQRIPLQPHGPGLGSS

[2] = biological target: T2, OCT1 (Solute carrier family 22 member 1) (Homo sapiens, UniProt O15245); experiment: TP_TRANSPORTER: inhibition of TEA uptake (TEA: 5 uM, GCV: 1000 uM) in OCT1-expressing S2 cells; parameters: scale not given: the % may be the effect or the level left; conditions: probe TEA, read-out: Activity
T2 sequence (O15245 whole entry): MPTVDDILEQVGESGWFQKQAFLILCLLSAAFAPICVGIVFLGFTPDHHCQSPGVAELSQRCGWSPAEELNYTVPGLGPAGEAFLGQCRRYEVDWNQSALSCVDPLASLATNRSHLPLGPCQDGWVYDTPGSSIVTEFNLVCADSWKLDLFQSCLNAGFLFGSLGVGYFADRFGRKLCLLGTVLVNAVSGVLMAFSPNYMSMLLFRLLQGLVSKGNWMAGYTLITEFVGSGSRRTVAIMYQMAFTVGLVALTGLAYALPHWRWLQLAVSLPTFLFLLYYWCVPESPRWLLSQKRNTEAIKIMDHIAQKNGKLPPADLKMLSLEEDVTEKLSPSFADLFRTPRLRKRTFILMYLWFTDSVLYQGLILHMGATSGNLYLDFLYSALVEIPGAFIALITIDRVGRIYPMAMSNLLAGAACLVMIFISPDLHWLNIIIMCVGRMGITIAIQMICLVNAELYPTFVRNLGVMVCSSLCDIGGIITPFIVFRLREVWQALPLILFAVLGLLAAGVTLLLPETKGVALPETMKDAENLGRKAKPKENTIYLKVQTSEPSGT

[3] = biological target: T3, OAT1 (Solute carrier family 22 member 6) (Homo sapiens, UniProt Q4U2R8); experiment: TP_TRANSPORTER: inhibition of PAH uptake (PAH: 5 uM, GCV: 1000 uM) in OAT1-expressing S2 cells; parameters: scale not given: the % may be the effect or the level left; conditions: mouse, probe PAH, read-out: Activity
T3 sequence (Q4U2R8 whole entry): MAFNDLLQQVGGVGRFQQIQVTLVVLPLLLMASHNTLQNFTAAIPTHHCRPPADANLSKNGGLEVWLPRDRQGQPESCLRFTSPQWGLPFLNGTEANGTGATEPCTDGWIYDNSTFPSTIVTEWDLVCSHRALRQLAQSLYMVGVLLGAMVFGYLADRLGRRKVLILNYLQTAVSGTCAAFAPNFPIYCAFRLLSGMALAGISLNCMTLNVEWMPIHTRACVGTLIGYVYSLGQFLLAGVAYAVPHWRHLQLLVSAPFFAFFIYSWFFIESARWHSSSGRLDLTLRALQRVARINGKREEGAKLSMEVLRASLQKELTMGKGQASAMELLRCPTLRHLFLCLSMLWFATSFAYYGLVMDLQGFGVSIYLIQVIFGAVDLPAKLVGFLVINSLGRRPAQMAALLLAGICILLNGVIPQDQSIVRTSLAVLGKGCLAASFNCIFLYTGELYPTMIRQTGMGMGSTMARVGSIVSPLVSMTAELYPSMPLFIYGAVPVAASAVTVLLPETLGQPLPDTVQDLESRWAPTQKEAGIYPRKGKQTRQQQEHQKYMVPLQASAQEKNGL

[4] = biological target: T4, OAT2 (Solute carrier family 22 member 7) (Homo sapiens, UniProt Q9Y694); experiment: TP_TRANSPORTER: inhibition of PGF2alpha uptake (PGF2alpha: 0.005 uM, GCV: 1000 uM) in OAT2-expressing S2 cells; parameters: scale not given: the % may be the effect or the level left; conditions: probe PGF2alpha, read-out: Activity
T4 sequence (Q9Y694 whole entry): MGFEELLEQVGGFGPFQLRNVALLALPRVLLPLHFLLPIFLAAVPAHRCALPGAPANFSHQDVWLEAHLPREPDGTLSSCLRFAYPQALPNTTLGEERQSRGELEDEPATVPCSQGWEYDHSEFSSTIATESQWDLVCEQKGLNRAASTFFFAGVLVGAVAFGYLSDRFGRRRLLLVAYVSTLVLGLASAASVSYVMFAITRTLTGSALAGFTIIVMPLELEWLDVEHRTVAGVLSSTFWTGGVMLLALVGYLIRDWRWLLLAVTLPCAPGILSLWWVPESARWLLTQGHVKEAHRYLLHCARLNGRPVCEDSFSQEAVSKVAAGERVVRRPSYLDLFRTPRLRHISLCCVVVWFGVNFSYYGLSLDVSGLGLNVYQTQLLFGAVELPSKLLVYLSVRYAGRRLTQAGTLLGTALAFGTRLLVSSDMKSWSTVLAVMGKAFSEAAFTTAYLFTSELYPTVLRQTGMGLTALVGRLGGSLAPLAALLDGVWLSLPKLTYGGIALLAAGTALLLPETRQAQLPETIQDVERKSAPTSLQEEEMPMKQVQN

[5] = biological target: T1, OAT3 (Organic anion transporter 3); experiment: TP_TRANSPORTER: inhibition of Estrone sulfate uptake (E1S: 0.05 uM, ACV: 1000 uM) in OAT3-expressing S2 cells; parameters: scale not given: the % may be the effect or the level left; conditions: mouse, probe Estrone sulfate (E1S), read-out: Activity
[6] = biological target: T2, OCT1 (Solute carrier family 22 member 1); experiment: TP_TRANSPORTER: inhibition of TEA uptake (TEA: 5 uM, ACV: 1000 uM) in OCT1-expressing S2 cells; parameters: scale not given: the % may be the effect or the level left; conditions: probe TEA, read-out: Activity
[7] = biological target: T3, OAT1 (Solute carrier family 22 member 6); experiment: TP_TRANSPORTER: inhibition of PAH uptake (PAH: 5 uM, ACV: 1000 uM) in OAT1-expressing S2 cells; parameters: scale not given: the % may be the effect or the level left; conditions: probe PAH, read-out: Activity
[8] = biological target: T5, OAT4 (Solute carrier family 22 member 11) (Homo sapiens, UniProt Q9NSA0); experiment: TP_TRANSPORTER: uptake in OAT4-expressing S2 cells
T5 sequence (Q9NSA0 whole entry): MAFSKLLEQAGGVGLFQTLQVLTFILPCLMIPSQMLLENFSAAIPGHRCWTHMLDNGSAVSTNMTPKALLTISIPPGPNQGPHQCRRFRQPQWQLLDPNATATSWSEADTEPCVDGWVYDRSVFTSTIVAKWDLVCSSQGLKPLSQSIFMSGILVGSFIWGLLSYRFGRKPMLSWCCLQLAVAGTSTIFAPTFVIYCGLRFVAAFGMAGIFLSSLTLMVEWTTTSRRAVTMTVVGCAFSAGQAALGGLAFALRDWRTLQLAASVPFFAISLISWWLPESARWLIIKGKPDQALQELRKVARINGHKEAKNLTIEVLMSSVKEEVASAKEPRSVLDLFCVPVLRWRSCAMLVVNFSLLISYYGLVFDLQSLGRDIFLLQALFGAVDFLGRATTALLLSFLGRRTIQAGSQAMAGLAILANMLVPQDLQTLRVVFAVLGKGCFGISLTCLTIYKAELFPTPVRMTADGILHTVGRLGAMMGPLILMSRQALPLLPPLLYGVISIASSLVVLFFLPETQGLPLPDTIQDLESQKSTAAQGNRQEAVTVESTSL

[9] = biological target: T4, OAT2 (Solute carrier family 22 member 7); experiment: TP_TRANSPORTER: inhibition of PGF2alpha uptake (PGF2alpha: 0.005 uM, AZT: 1000 uM) in OAT2-expressing S2 cells; parameters: scale not given: the % may be the effect or the level left; conditions: probe PGF2alpha, read-out: Activity
[10] = biological target: T3, OAT1 (Solute carrier family 22 member 6); experiment: (§1) TP_TRANSPORTER: uptake in OAT1-expressing S2 cells
[11] = biological target: T4, OAT2 (Solute carrier family 22 member 7); experiment: TP_TRANSPORTER: uptake in OAT2-expressing S2 cells
[12] = biological target: T1, OAT3 (Organic anion transporter 3); experiment: TP_TRANSPORTER: inhibition of E1S uptake (E1S: 0.05 uM, AZT: 1000 uM) in OAT3-expressing S2 cells; parameters: scale not given: the % may be the effect or the level left; conditions: mouse, probe E1S, read-out: Activity
[13] = biological target: T1, OAT3 (Organic anion transporter 3); experiment: (§2) TP_TRANSPORTER: uptake in OAT3-expressing S2 cells; conditions: mouse
[14] = biological target: T3, OAT1 (Solute carrier family 22 member 6); experiment: TP_TRANSPORTER: inhibition of PAH uptake (PAH: 5 uM, AZT: 1000 uM) in OAT1-expressing S2 cells; parameters: scale not given: the % may be the effect or the level left; conditions: mouse, probe PAH, read-out: Activity
[15] = biological target: T5, OAT4 (Solute carrier family 22 member 11); experiment: TP_TRANSPORTER: inhibition of E1S uptake (E1S: 0.05 uM, AZT: 1000 uM) in OAT4-expressing S2 cells; parameters: scale not given: the % may be the effect or the level left; conditions: mouse, probe E1S, read-out: Activity
[16] = substrate: Nc1nc2c(ncn2COCCO)c(=O)[nH]1; experiment: (§3) TP_TRANSPORTER: uptake in OCT1-expressing S2 cells
[17] = substrate: Nc1nc(O)c2ncn(COC(CO)CO)c2n1; experiment: as §3
[18] = substrate: Nc1nc2c(ncn2COCCO)c(=O)[nH]1; experiment: as §1
[19] = substrate: Nc1nc(O)c2ncn(COC(CO)CO)c2n1; experiment: as §1
[20] = substrate: CC(C)[C@H](N)C(=O)OCCOCn1cnc2c(=O)[nH]c(N)nc21; experiment: as §2

## Nc1nc(O)c2ncn(COC(CO)CO)c2n1 [GANCICLOVIR]
[1]
  activity at 1000 µM: 74.3%
[2]
  activity at 1000 µM: 88.3%
[3]
  activity at 1000 µM: 87.1%
[4]
  activity at 1000 µM: 63.3%

## Nc1nc2c(ncn2COCCO)c(=O)[nH]1 [ACYCLOVIR]
[5]
  activity at 1000 µM: 64.3%
[6]
  activity at 1000 µM: 88.4%
[7]
  activity at 1000 µM: 67%

## Cc1cn([C@H]2C[C@H](N=[N+]=[N-])[C@@H](CO)O2)c(=O)[nH]c1=O [ZIDOVUDINE]
[8]
  Km: 152 µM
[9]
  activity at 1000 µM: 76.7%
[10]
  Km: 45.9 µM
[11]
  Km: 26.8 µM
[12]
  activity at 1000 µM: 70%
[13]
  Km: 145 µM
[14]
  activity at 1000 µM: 30.7%
[15]
  activity at 1000 µM: 84.2%

B1: Solute carrier family 22 member 1 (Homo sapiens) (protein)
chain: T2 sequence (O15245 whole entry)
[16]
  Km: 151 µM
[17]
  Km: 516 µM

B2: Solute carrier family 22 member 6 (Homo sapiens) (protein)
chain: T3 sequence (Q4U2R8 whole entry)
[18]
  Km: 342 µM
[19]
  Km: 896 µM

B3: Organic anion transporter 3 (Homo sapiens) (protein)
chain: T1 sequence (Q8TCC7 whole entry)
[20]
  Km: 57.9 µM
